ChEMBL document CHEMBL1149662, “Design and synthesis of a library of tertiary amides: evaluation as mimetics of the melanocortins' active core” (Bioorg Med Chem, 2007)
The source made the active and inactive calls. The calls are words filed in the database; no cut-off is given here.

Tests used:
[1] = target: T1, Melanocortin receptor 3 (Homo sapiens, UniProt P41968); test: Antagonist activity at MC3 receptor expressed in COS1 cells assessed as inhibition of alpha-MSH-induced cAMP accumulation at 100 uM; type: functional, cell-based; settings: COS-1
T1 sequence (P41968 whole entry): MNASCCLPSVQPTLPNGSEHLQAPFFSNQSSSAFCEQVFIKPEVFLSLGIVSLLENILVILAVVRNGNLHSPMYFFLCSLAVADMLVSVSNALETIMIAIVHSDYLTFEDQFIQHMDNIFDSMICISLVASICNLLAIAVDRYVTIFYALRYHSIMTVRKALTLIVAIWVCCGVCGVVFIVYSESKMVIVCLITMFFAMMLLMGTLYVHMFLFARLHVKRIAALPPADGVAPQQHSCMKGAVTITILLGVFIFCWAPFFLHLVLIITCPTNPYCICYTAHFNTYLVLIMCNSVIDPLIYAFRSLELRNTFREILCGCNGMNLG

[2] = target: T2, Melanocyte-stimulating hormone receptor (Mus musculus, UniProt Q01727); test: Displacement of [125I]NDP-MSH from MC1 receptor in mouse B16 cells; type: cell-based
T2 sequence (Q01727 whole entry): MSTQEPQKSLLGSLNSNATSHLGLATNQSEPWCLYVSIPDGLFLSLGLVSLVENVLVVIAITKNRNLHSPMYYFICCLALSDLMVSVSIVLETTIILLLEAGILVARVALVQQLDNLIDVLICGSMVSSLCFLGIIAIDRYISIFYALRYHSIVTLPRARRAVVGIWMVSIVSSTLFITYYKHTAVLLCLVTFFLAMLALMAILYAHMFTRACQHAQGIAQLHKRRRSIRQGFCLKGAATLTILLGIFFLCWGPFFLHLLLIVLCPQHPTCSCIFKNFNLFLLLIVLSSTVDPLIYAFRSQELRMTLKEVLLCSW

[3] = target: Melanocyte-stimulating hormone receptor (Mus musculus) (UniProt Q01727); test: Antagonist activity MC1 receptor in mouse B16 cells assessed as inhibition of alpha-MSH-induced cAMP accumulation at 100 uM; type: functional, cell-based
Melanocyte-stimulating hormone receptor (Mus musculus), sequence (Q01727 whole entry, looked up): as the sequence (Q01727 whole entry) above

[4] = target: T3, Melanocortin receptor 4 (Homo sapiens, UniProt P32245); test: Displacement of [125I]NDP-MSH from human recombinant MC4 receptor expressed in Sf9 cells
T3 sequence (P32245 whole entry): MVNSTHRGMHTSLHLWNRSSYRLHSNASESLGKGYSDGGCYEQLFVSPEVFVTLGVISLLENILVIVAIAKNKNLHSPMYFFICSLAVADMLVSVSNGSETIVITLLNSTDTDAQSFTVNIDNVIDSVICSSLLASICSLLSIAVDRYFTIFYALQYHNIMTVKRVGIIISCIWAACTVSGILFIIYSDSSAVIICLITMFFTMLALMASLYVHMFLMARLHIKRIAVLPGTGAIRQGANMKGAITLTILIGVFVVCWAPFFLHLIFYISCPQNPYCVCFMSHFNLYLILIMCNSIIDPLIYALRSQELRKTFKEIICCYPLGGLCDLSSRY

[5] = target: T4, Melanocortin receptor 5 (Homo sapiens, UniProt P33032); test: Displacement of [125I]NDP-MSH from human recombinant MC5 receptor expressed in Sf9 cells
T4 sequence (P33032 whole entry): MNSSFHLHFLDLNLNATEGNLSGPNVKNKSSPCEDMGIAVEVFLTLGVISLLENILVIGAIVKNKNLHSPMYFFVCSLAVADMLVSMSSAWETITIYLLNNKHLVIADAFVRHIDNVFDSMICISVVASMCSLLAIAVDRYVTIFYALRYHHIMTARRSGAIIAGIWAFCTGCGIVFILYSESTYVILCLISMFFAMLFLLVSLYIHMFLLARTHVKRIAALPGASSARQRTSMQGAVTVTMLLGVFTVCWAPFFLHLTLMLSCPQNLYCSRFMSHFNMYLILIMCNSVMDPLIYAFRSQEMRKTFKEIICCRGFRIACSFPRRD

[6] = target: T1, Melanocortin receptor 3; test: Displacement of [125I]NDP-MSH from human recombinant MC3 receptor expressed in Sf9 cells
[7] = target: T3, Melanocortin receptor 4; test: Antagonist activity at MC4 receptor expressed in COS1 cells assessed as inhibition of alpha-MSH-induced cAMP accumulation at 100 uM; type: functional, cell-based; settings: COS-1
[8] = target: T4, Melanocortin receptor 5; test: Antagonist activity at MC5 receptor expressed in COS1 cells assessed as inhibition of alpha-MSH-induced cAMP accumulation at 100 uM; type: functional, cell-based; settings: COS-1
[9] = target: T4, Melanocortin receptor 5; test: Displacement of [125I]NDP-MSH from human recombinant MC5 receptor expressed in Sf9 cells up to 1 mM
[10] = target: T1, Melanocortin receptor 3; test: Displacement of [125I]NDP-MSH from human recombinant MC3 receptor expressed in Sf9 cells up to 1 mM
[11] = target: T3, Melanocortin receptor 4; test: Displacement of [125I]NDP-MSH from human recombinant MC4 receptor expressed in Sf9 cells up to 1 mM
[12] = target: T2, Melanocyte-stimulating hormone receptor; test: Displacement of [125I]NDP-MSH from MC1 receptor in mouse B16 cells up to 1 mM; type: cell-based
[13] = Selectivity for mouse MC1 receptor over human MC4 receptor
[14] = Selectivity for mouse MC1 receptor over human MC3 receptor
[15] = Selectivity for mouse MC1 receptor over human MC5 receptor

Row | Activity [1] | Ki [2] [µM] | Activity [3] | Ki [4] [µM] | Ki [5] [µM] | Ki [6] [µM] | Activity [7] | Activity [8] | Ki [9] | Ki [10] | Ki [11] | Ki [12] | Ratio [13] | Ratio [14] | Ratio [15] | SMILES
1 | Active | 15 | Active | 111 | 16 | 63 | Active | Active |  |  |  |  |  |  |  | NCCCCN(Cc1ccc2ccccc2c1)C(=O)Cc1c[nH]c2ccccc12
2 | Active | 5.1 | Active | 12 | 34 | 20 | Active | Active |  |  |  |  |  |  |  | NCCCCCN(Cc1ccc2ccccc2c1)C(=O)CCCc1c[nH]c2ccccc12
3 | Active | 20 | Active | 161 | 12 | 63 | Active | Active |  |  |  |  |  |  |  | NCCCN(Cc1ccc2ccccc2c1)C(=O)Cc1c[nH]c2ccccc12
4 |  | 6.4 |  | 26 |  | 21 |  |  | Not Active |  |  |  |  |  |  | NCCCN(C/C=C/c1ccccc1)C(=O)Cc1c[nH]c2ccccc12
5 | Active | 12 | Active | 16 | 13 | 53 | Active | Active |  |  |  |  |  |  |  | N=C(N)NCCCN(Cc1ccc2ccccc2c1)C(=O)CCc1c[nH]c2ccccc12
6 |  |  |  |  |  |  |  |  | Not Active | Not Active | Not Active | Not Active |  |  |  | NCCCCCN(Cc1ccccc1)C(=O)[C@H](N)Cc1ccccn1
7 | Active | 36 | Active | 140 | 18 | 68 | Active | Active |  |  |  |  |  |  |  | NCCN(Cc1ccc2ccccc2c1)C(=O)Cc1c[nH]c2ccccc12
8 | Active |  | Active |  |  |  | Active | Active |  |  |  |  |  |  |  | N=C(N)NCCCCN(Cc1ccc2ccccc2c1)C(=O)CCc1c[nH]c2ccccc12
9 | Active | 3.7 | Active | 8.1 | 8 | 27 | Active | Active |  |  |  |  |  |  |  | NCCCCCN(C/C=C/c1ccccc1)C(=O)CCc1c[nH]c2ccccc12
10 |  | 1.2 |  | 17 | 40 | 24 |  |  |  |  |  |  | 10 | 10 | 10 | NCCCCCCCCN(C/C=C/c1ccccc1)C(=O)CCc1c[nH]c2ccccc12
11 |  | 1.9 |  | 33 | 32 | 45 |  |  |  |  |  |  | 10 | 10 | 10 | NCc1cccc(CN(Cc2ccccc2)C(=O)CCCc2c[nH]c3ccccc23)c1
12 |  | 2.4 |  | 33 | 25 | 37 |  |  |  |  |  |  | 10 | 10 | 10 | NCCCN(C(=O)Cc1c[nH]c2ccccc12)C1CCc2ccccc2C1 (configuration not stated)
13 |  | 1.6 |  | 27 | 25 | 29 |  |  |  |  |  |  | 10 | 10 | 10 | NCCN(C(=O)Cc1ccc2ccccc2c1)C1CCc2ccccc2C1 (configuration not stated)
14 |  | 0.94 |  | 1.3 | 18 | 94 |  |  |  |  |  |  |  |  |  | COc1cc(Br)c(/C=C/CN(C(=O)CCCc2c(Cc3ccc(O)cc3)[nH]c3ccccc23)C2CCC(CC3CCC(N)CC3)CC2)cc1OC (configuration not stated)
